# Paper PMC7982426 (Acta Pharmaceutica Sinica. B, 2020)
# Molecular target: G protein-coupled receptor 35 (GPR35) (Homo sapiens, UniProt Q9HC97)
# Test: GPR35 internalization by flow cytometry in NCM460 cells
# Type: cell-based
# G protein-coupled receptor 35 (GPR35), sequence (Q9HC97 whole entry): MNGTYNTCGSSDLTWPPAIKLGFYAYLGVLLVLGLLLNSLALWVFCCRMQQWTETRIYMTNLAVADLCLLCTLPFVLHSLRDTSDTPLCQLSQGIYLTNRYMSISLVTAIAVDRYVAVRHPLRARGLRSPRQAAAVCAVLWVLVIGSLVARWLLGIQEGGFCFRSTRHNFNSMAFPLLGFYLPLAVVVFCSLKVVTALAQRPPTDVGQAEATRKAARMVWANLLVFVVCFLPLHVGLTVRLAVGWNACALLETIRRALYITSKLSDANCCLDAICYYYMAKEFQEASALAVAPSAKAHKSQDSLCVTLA
compound,measurement,value
"O=C(O)c1cc(=O)c2ccccc2[nH]1 [KA, kynurenic acid]",EC50,46.2 µM
